According to ChEMBL document CHEMBL1909046, “DrugMatrix in vitro pharmacology data”:

What was measured:
[1] = biological target: T1, Alpha-2A adrenergic receptor (Homo sapiens, UniProt P08913); format: cell membranes, Sf9, Membrane; settings: for Ki: read-out: Ki; on all read-outs here: in other assays of this panel Not Active means under 50% inhibition at 10 µM
T1 sequence (P08913 whole entry): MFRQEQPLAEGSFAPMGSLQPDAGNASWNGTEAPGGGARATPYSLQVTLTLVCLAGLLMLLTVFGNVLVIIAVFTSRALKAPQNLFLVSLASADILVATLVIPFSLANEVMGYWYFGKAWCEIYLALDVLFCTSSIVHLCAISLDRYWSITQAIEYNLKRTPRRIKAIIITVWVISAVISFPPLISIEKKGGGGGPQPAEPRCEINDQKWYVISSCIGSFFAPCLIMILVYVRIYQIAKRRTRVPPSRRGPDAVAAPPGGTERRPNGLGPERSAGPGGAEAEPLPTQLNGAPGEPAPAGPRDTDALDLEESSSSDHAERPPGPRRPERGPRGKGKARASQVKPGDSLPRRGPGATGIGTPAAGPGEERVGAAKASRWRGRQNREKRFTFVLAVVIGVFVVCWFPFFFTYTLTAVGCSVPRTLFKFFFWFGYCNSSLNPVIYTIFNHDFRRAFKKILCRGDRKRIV

[2] = biological target: T2, Vasoactive intestinal polypeptide receptor 1 (Homo sapiens, UniProt P32241); format: cell membranes, Membrane; settings: ht-29; further: in other assays of this panel Not Active means under 50% inhibition at 10 µM
T2 sequence (P32241 whole entry): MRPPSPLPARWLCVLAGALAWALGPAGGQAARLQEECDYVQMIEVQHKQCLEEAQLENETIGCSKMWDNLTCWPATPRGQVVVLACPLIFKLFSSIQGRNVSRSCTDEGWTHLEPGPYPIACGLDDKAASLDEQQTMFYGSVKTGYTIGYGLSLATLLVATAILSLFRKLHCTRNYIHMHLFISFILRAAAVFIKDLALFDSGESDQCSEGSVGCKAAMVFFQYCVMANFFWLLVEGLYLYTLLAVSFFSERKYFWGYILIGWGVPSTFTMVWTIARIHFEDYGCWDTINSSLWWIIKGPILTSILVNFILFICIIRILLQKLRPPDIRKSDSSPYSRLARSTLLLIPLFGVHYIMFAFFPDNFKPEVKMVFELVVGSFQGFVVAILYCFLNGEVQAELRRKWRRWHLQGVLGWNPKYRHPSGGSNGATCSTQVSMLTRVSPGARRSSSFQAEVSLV

Cannabinoid receptor 1 = Cannabinoid receptor 1 (Homo sapiens, UniProt P21554); format: cell membranes, Chem-1, Membrane; settings: chem-1; further: in other assays of this panel Not Active means under 50% inhibition at 10 µM
[3] = biological target: Protein kinase C alpha type (Homo sapiens, UniProt P17252); format: cell-based; settings: sf9;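 further: inhibition of PKCalpha kinase activity measured in an enzyme assay with histone as the phosphorylation substrate; in other assays of this panel Not Active means under 50% inhibition at 10 µM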
[4] = biological target: Epidermal growth factor receptor (Homo sapiens, UniProt P00533); test: DRUGMATRIX: Protein Tyrosine Kinase, EGF Receptor enzyme inhibition (substrate: Poly(Glu:Tyr)); format: cell-based, Insect cells; settings: Not Active = under 50% inhibition at 10 µM
Chain of Epidermal growth factor receptor (P00533 whole entry): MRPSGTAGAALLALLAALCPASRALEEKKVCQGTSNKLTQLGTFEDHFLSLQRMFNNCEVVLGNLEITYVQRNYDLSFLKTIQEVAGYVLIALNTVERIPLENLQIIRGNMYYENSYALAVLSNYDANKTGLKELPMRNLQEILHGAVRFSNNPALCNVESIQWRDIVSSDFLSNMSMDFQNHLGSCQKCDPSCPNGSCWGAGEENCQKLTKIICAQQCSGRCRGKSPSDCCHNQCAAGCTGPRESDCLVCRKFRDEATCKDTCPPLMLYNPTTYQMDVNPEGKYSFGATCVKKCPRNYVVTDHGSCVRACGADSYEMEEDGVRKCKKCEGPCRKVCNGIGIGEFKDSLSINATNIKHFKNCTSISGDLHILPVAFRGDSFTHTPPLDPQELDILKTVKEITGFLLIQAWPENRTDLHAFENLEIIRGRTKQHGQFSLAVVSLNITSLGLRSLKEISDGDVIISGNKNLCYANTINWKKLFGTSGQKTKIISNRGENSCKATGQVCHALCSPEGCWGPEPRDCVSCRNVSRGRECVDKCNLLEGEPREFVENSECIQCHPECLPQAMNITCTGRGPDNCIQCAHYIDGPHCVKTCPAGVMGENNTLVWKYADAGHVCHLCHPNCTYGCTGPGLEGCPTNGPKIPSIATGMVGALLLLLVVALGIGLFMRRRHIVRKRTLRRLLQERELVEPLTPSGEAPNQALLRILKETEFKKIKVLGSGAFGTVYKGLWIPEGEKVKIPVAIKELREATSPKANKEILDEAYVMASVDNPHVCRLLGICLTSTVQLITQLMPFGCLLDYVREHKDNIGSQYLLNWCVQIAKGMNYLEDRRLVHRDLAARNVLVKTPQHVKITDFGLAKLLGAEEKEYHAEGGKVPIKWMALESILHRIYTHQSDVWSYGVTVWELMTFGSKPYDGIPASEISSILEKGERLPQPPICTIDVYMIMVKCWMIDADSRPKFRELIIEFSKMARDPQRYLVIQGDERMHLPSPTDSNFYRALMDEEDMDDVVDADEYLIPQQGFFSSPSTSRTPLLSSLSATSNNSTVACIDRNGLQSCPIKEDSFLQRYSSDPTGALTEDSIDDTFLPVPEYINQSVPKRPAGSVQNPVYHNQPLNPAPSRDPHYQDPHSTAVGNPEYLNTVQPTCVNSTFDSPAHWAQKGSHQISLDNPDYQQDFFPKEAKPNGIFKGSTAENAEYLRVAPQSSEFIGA

Chain of Cannabinoid receptor 1 (P21554 whole entry): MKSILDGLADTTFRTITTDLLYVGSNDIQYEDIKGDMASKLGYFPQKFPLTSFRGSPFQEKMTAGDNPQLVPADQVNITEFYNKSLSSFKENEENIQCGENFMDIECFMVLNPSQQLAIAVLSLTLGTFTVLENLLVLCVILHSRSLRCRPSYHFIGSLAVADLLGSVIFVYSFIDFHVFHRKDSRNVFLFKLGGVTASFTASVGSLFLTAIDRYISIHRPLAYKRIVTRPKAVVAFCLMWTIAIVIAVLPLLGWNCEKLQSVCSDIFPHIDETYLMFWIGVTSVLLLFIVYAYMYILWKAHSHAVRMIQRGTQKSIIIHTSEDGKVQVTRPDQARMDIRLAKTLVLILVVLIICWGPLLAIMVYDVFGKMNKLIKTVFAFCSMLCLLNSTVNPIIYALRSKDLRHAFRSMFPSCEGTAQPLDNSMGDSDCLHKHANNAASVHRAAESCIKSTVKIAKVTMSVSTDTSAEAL

Oc1ccccc1 [PHENOL]
Not Active: IC50 ([1]; sf9) | IC50 [2] | IC50 (Cannabinoid receptor 1) | IC50 [3] | IC50 ([4]; insect cells)

Oc1ncnc2[nH]ncc12 [ALLOPURINOL]
Not Active: IC50 ([1]; sf9) | IC50 [2] | IC50 (Cannabinoid receptor 1) | IC50 [3] | IC50 ([4]; insect cells)

COC(=O)Nc1nc2ccc(Sc3ccccc3)cc2[nH]1 [FENBENDAZOLE]
Not Active: IC50 ([1]; sf9) | IC50 [2] | IC50 (Cannabinoid receptor 1) | IC50 [3] | IC50 ([4]; insect cells)

C[C@@H]1[C@H](O)[C@@H](C)/C=C/C=C/C=C/C=C/C=C/C=C/C=C/[C@H](O[C@@H]2O[C@H](C)[C@@H](O)[C@H](N)[C@@H]2O)C[C@@H]2O[C@](O)(C[C@@H](O)C[C@@H](O)[C@H](O)CC[C@@H](O)C[C@@H](O)CC(=O)O[C@H]1C)C[C@H](O)[C@H]2C(=O)O [AMPHOTERICIN B]
Not Active: IC50 ([1]; sf9) | IC50 [2] | IC50 (Cannabinoid receptor 1) | IC50 [3] | IC50 ([4]; insect cells)

CNC[C@H](O)c1ccc(O)c(O)c1 [EPINEPHRINE]
Not Active: IC50 [2] | IC50 (Cannabinoid receptor 1) | IC50 [3] | IC50 ([4]; insect cells)

CC1(COc2ccc(CC3SC(=O)NC3=O)cc2)CCCCC1 (stereo not given) [CIGLITAZONE]
6.21 µM: Ki [1]
4.66 µM: IC50 ([4]; read-out: IC50)
16.6 µM: IC50 ([1]; read-out: IC50)
Not Active: IC50 [2] | IC50 (Cannabinoid receptor 1) | IC50 [3]

NC(N)=Nc1nc(CSCCC(N)=NS(N)(=O)=O)cs1 [FAMOTIDINE]
Not Active: IC50 ([1]; sf9) | IC50 [2] | IC50 (Cannabinoid receptor 1) | IC50 [3] | IC50 ([4]; insect cells)

Nc1nc(F)nc2c1ncn2[C@@H]1O[C@H](CO)[C@@H](O)[C@@H]1O [FLUDARABINE]
Not Active: IC50 ([1]; sf9) | IC50 [2] | IC50 (Cannabinoid receptor 1) | IC50 [3] | IC50 ([4]; insect cells)

NC(=O)NC(=O)Cc1ccccc1 [PHENACEMIDE]
Not Active: IC50 ([1]; sf9) | IC50 [2] | IC50 (Cannabinoid receptor 1) | IC50 [3] | IC50 ([4]; insect cells)

O=c1[nH]cnc2c1ncn2[C@H]1CC[C@@H](CO)O1 [DIDANOSINE]
Not Active: IC50 ([1]; sf9) | IC50 [2] | IC50 (Cannabinoid receptor 1) | IC50 [3] | IC50 ([4]; insect cells)

NC(=O)CN1CCCC1=O
Not Active: IC50 ([1]; sf9) | IC50 [2] | IC50 (Cannabinoid receptor 1) | IC50 [3] | IC50 ([4]; insect cells)

Clc1cc(Cl)c(OCC#CI)cc1Cl [HALOPROGIN]
0.458 µM: Ki [1]
1.22 µM: IC50 ([1]; read-out: IC50)
Not Active: IC50 [2] | IC50 (Cannabinoid receptor 1) | IC50 [3] | IC50 ([4]; insect cells)

O=C(NCCN1CCOCC1)c1ccc(Cl)cc1 [MOCLOBEMIDE]
Not Active: IC50 ([1]; sf9) | IC50 [2] | IC50 (Cannabinoid receptor 1) | IC50 [3] | IC50 ([4]; insect cells)

Cc1c(N)nc([C@H](CC(N)=O)NC[C@H](N)C(N)=O)nc1C(=O)N[C@H](C(=O)N[C@H](C)[C@@H](O)[C@H](C)C(=O)N[C@H](C(=O)NCCc1nc(-c2nc(C(=O)NCCC[S+](C)C)cs2)cs1)[C@@H](C)O)[C@@H](O[C@@H]1O[C@@H](CO)[C@@H](O)[C@H](O)[C@@H]1O[C@H]1O[C@H](CO)[C@@H](O)[C@H](OC(N)=O)[C@@H]1O)c1c[nH]cn1.[Br-] [BLEOMYCIN A2]
Not Active: IC50 ([1]; sf9) | IC50 [2] | IC50 (Cannabinoid receptor 1) | IC50 [3] | IC50 ([4]; insect cells)

CC(C)Cc1ccc([C@H](C)C(=O)O)cc1 [DEXIBUPROFEN]
Not Active: IC50 ([1]; sf9) | IC50 [2] | IC50 (Cannabinoid receptor 1) | IC50 [3] | IC50 ([4]; insect cells)

COc1ccc(C[C@H](N)C(=O)N[C@H]2[C@@H](O)[C@H](n3cnc4c(N(C)C)ncnc43)O[C@@H]2CO)cc1 [PUROMYCIN]
Not Active: IC50 ([1]; sf9) | IC50 [2] | IC50 (Cannabinoid receptor 1) | IC50 [3] | IC50 ([4]; insect cells)

CCC1(c2ccccc2)C(=O)NC(=O)NC1=O [PHENOBARBITAL]
Not Active: IC50 ([1]; sf9) | IC50 [2] | IC50 (Cannabinoid receptor 1) | IC50 [3] | IC50 ([4]; insect cells)

O=C1c2ccccc2C(=O)C1c1ccccc1 [PHENINDIONE]
Not Active: IC50 ([1]; sf9) | IC50 [2] | IC50 (Cannabinoid receptor 1) | IC50 [3] | IC50 ([4]; insect cells)

CO[C@H]1O[C@@H]2O[C@@]3(C)CC[C@H]4[C@H](C)CC[C@@H]([C@H]1C)[C@@]24OO3
Not Active: IC50 ([1]; sf9) | IC50 [2] | IC50 (Cannabinoid receptor 1) | IC50 [3] | IC50 ([4]; insect cells)

COc1cc(NC(C)CCCN)c2ncccc2c1 (stereo not given) [PRIMAQUINE]
Not Active: IC50 ([1]; sf9) | IC50 [2] | IC50 (Cannabinoid receptor 1) | IC50 [3] | IC50 ([4]; insect cells)

C#C[C@]1(O)CC[C@H]2[C@@H]3CCC4=CC(=O)CC[C@@H]4[C@H]3CC[C@@]21C [NORETHINDRONE]
Not Active: IC50 ([1]; sf9) | IC50 [2] | IC50 (Cannabinoid receptor 1) | IC50 [3] | IC50 ([4]; insect cells)

CC(C)(C#N)c1cc(Cn2cncn2)cc(C(C)(C)C#N)c1 [ANASTROZOLE]
Not Active: IC50 ([1]; sf9) | IC50 [2] | IC50 (Cannabinoid receptor 1) | IC50 [3] | IC50 ([4]; insect cells)

O=C(Nc1ccc(Cl)c(Cl)c1)c1cc(Cl)cc(Cl)c1O [3,3',4',5-TETRACHLOROSALICYLANILIDE]
Not Active: IC50 ([1]; sf9) | IC50 [2] | IC50 (Cannabinoid receptor 1) | IC50 [3] | IC50 ([4]; insect cells)

O=C(O)CO [GLYCOLIC ACID]
Not Active: IC50 ([1]; sf9) | IC50 [2] | IC50 (Cannabinoid receptor 1) | IC50 [3] | IC50 ([4]; insect cells)

CC(C)(c1ccc(O)cc1)c1ccc(O)cc1 [BISPHENOL A]
Not Active: IC50 ([1]; sf9) | IC50 [2] | IC50 (Cannabinoid receptor 1) | IC50 [3] | IC50 ([4]; insect cells)

C=CCO [ALLYL ALCOHOL]
Not Active: IC50 ([1]; sf9) | IC50 [2] | IC50 (Cannabinoid receptor 1) | IC50 [3] | IC50 ([4]; insect cells)

COc1ccc(Cl)cc1C(=O)NCCc1ccc(S(=O)(=O)NC(=O)NC2CCCCC2)cc1 [GLYBURIDE]
Not Active: IC50 ([1]; sf9) | IC50 [2] | IC50 (Cannabinoid receptor 1) | IC50 [3] | IC50 ([4]; insect cells)

CC(CN1c2ccccc2Sc2ccccc21)N(C)C (stereo not given) [PROMETHAZINE]
Not Active: IC50 [2] | IC50 (Cannabinoid receptor 1) | IC50 [3] | IC50 ([4]; insect cells)

NCC(CC(=O)O)c1ccc(Cl)cc1 (stereo not given) [BACLOFEN]
Not Active: IC50 ([1]; sf9) | IC50 [2] | IC50 (Cannabinoid receptor 1) | IC50 [3] | IC50 ([4]; insect cells)

CC12CCC(CC1=O)C2(C)C (stereo not given) [CAMPHOR]
Not Active: IC50 ([1]; sf9) | IC50 [2] | IC50 (Cannabinoid receptor 1) | IC50 [3] | IC50 ([4]; insect cells)

Cc1ccnc2c1NC(=O)c1cccnc1N2C1CC1 [NEVIRAPINE]
Not Active: IC50 ([1]; sf9) | IC50 [2] | IC50 (Cannabinoid receptor 1) | IC50 [3] | IC50 ([4]; insect cells)

CCN1CCN(C(=O)N[C@@H](C(=O)N[C@@H]2C(=O)N3[C@@H]2SC(C)(C)[C@@H]3C(=O)O)c2ccccc2)C(=O)C1=O [PIPERACILLIN]
Not Active: IC50 ([1]; sf9) | IC50 [2] | IC50 (Cannabinoid receptor 1) | IC50 [3] | IC50 ([4]; insect cells)

O=C(O)c1ccccc1 [BENZOIC ACID]
Not Active: IC50 ([1]; sf9) | IC50 [2] | IC50 (Cannabinoid receptor 1) | IC50 [3] | IC50 ([4]; insect cells)
